The source made the active and inactive calls. No cut-off for these calls is given here.
Legend:
[1] = target: Sodium-dependent serotonin transporter (Rattus norvegicus, UniProt P31652); assay: Displacement of [3H]-paroxetine from SERT in rat cerebral cortex incubated for 10 mins by liquid scintillation counting method; format: tissue-based
[2] = target: T1, Transporter (Rattus norvegicus, UniProt Q63380); assay: Displacement of [3H]-nisoxetine from NET in rat hippocampal membrane incubated for 8 hrs by liquid scintillation counting method; format: cell membranes, Hippocampus
T1 sequence (Q63380 whole entry): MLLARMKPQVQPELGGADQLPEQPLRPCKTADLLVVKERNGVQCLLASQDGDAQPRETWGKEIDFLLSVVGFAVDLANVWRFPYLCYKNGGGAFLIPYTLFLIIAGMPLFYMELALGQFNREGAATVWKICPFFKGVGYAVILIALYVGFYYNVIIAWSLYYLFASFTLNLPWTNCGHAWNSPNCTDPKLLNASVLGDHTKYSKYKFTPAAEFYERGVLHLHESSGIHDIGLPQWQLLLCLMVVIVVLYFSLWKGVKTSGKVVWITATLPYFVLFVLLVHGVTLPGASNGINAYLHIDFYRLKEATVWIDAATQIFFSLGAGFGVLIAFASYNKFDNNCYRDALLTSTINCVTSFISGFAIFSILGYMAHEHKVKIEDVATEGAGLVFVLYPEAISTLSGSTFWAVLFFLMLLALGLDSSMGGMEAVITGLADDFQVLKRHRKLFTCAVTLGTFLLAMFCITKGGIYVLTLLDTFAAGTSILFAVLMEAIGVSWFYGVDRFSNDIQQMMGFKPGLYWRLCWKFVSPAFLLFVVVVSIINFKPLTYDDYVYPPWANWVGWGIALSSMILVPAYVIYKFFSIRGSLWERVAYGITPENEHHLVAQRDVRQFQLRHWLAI

[3] = target: T2, 5-hydroxytryptamine receptor 2A (Homo sapiens, UniProt P28223); assay: Agonist activity at 5-HT2A in HEK293 cells at 10 uM incubated for 60 mins by FLIPR assay relative to control; format: functional, cell-based
T2 sequence (P28223 whole entry): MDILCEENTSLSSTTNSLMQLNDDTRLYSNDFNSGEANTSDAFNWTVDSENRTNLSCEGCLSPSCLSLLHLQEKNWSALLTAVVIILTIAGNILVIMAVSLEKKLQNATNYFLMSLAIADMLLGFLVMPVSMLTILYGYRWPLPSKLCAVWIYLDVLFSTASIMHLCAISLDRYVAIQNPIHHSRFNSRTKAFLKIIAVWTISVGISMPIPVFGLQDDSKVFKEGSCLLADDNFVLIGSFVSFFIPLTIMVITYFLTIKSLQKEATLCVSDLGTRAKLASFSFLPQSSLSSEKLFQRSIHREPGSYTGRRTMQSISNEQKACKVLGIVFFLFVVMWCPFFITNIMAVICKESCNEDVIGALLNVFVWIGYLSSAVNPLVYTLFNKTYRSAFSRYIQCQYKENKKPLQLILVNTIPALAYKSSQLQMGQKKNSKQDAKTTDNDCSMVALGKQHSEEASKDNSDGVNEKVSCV

[4] = target: Sodium-dependent serotonin transporter (Rattus norvegicus) (UniProt P31652); assay: Antagonist activity at rat cerebral cortex membrane SERT at 10 uM incubated for 10 mins in presence of [3H]5-HT relative to control; format: cell membranes; parameters: scale not given: the % may be the effect or the level left; conditions: filed as antagonist
Sodium-dependent serotonin transporter (Rattus norvegicus), sequence (P31652 whole entry): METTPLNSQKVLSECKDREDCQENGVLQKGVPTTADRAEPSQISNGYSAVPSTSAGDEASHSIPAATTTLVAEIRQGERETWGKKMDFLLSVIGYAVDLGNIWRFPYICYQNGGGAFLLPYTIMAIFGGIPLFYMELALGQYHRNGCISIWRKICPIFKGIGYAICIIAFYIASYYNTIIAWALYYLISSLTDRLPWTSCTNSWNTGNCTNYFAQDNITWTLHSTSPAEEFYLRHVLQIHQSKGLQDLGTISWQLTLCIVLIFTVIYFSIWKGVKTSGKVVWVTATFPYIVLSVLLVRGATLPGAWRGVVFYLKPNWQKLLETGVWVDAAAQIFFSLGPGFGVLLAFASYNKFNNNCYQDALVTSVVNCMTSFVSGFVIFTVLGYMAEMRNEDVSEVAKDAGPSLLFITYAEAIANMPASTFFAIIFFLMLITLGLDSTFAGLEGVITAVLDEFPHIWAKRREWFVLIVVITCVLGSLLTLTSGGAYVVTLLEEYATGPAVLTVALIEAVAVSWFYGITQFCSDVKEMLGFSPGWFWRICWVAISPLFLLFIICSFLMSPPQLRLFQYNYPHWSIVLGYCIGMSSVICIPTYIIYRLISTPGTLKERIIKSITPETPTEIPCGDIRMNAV

[5] = target: T3, Alpha-1A adrenergic receptor (Rattus norvegicus, UniProt P43140); assay: Displacement of [3H]-prazosin from adrenergic alpha-1 receptor in rat cerebral cortex incubated for 60 mins by liquid scintillation counting method; format: toxicity, tissue-based
T3 sequence (P43140 whole entry): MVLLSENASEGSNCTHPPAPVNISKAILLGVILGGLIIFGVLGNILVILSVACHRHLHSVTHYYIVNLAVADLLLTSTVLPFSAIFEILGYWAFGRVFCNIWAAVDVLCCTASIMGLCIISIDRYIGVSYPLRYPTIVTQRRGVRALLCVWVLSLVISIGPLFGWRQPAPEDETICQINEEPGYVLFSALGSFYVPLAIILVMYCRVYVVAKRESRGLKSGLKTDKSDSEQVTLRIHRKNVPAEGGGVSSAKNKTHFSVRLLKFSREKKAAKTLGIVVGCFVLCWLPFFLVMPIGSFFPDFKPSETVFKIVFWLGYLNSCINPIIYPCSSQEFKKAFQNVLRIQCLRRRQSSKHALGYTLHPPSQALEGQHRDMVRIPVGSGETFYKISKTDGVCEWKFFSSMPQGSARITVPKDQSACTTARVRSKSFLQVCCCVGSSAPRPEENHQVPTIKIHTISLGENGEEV

[6] = target: Voltage-gated inwardly rectifying potassium channel KCNH2 (Homo sapiens, UniProt Q12809); assay: Inhibition of human ERG expressed in HEK293 cells by whole-cell patch clamp method; format: toxicity, cell-based
Voltage-gated inwardly rectifying potassium channel KCNH2, sequence (Q12809 whole entry): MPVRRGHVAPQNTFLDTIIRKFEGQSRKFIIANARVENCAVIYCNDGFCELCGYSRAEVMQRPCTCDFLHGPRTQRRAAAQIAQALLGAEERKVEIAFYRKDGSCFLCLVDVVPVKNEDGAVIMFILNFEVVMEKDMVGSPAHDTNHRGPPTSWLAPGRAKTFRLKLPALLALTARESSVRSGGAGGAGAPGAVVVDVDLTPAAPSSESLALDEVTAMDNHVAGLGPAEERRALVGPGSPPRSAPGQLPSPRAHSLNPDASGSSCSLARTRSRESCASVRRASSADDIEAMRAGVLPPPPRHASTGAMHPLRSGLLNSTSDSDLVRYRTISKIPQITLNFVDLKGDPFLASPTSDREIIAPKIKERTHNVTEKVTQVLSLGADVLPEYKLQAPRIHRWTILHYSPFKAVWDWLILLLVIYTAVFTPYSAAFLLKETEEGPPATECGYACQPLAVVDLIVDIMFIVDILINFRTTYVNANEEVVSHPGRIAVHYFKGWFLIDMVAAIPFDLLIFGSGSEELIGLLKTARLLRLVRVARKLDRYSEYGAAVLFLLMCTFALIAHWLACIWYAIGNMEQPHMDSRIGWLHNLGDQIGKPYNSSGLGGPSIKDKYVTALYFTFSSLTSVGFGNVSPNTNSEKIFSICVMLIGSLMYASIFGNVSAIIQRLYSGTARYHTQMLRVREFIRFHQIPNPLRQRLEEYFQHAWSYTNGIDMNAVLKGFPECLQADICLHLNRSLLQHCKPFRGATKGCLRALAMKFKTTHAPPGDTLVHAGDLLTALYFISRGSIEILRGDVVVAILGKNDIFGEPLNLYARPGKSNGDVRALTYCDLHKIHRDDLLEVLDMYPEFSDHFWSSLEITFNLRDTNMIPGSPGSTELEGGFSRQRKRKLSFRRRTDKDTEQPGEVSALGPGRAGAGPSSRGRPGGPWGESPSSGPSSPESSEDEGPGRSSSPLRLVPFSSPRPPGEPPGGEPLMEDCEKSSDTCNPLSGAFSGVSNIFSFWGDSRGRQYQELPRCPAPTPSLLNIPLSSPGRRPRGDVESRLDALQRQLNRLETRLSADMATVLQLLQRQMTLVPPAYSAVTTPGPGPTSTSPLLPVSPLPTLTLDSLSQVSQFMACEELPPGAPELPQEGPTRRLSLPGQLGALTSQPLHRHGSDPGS

[7] = system: histamine H1 receptor; assay: Displacement of [3H]-pyrilamine from H1 receptor in guinea pig cerebellum membrane incubated for 60 mins by liquid scintillation counting method; format: toxicity, cell membranes, Cavia porcellus; conditions: probe [3H]-pyrilamine
[8] = target: 5-hydroxytryptamine receptor 2A (Rattus norvegicus, UniProt P14842); assay: Displacement of [3H]-ketanserin from 5-HT2A in rat cerebral cortex incubated for 15 mins by liquid scintillation counting method; format: tissue-based
5-hydroxytryptamine receptor 2A (Rattus norvegicus, UniProt P14842), sequence (P14842 whole entry): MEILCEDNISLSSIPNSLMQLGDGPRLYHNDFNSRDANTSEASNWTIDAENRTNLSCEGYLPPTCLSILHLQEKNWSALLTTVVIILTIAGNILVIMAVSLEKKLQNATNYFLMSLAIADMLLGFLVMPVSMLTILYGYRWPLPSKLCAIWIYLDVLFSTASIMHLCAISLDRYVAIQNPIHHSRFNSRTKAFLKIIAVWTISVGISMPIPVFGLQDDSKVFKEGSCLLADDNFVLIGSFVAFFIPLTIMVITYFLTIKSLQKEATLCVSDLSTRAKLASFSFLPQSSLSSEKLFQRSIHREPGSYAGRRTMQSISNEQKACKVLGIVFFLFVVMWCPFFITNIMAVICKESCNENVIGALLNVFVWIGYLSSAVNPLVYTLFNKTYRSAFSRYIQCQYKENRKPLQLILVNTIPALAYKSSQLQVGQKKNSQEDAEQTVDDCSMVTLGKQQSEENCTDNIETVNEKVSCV

[9] = target: T4, 5-hydroxytryptamine receptor 2C (Rattus norvegicus, UniProt P08909); assay: Displacement of [3H]-mesulergine from 5-HT2C in rat cerebral cortex incubated for 15 mins by liquid scintillation counting method; format: tissue-based
T4 sequence (P08909 whole entry): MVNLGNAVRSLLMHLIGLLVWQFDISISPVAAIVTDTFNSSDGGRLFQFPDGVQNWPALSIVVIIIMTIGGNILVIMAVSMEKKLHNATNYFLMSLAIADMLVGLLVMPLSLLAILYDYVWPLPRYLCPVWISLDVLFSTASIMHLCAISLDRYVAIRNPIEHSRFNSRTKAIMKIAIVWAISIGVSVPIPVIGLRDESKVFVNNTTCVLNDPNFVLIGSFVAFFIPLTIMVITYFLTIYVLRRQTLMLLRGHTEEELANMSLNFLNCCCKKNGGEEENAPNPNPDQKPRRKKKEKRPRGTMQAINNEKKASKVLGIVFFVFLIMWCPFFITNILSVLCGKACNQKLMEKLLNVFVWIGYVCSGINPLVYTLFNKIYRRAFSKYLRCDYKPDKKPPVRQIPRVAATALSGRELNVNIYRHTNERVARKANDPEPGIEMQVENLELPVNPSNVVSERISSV

[10] = target: T1, Transporter; assay: Binding affinity to rat NET
[11] = target: T2, 5-hydroxytryptamine receptor 2A; assay: Antagonist activity at 5-HT2A in HEK293 cells at 10 uM incubated for 60 mins by FLIPR assay relative to control; format: cell-based; parameters: scale not given: the % may be the effect or the level left; conditions: filed as antagonist
[12] = target: 5-hydroxytryptamine receptor 2C (Homo sapiens, UniProt P28335); assay: Antagonist activity at 5-HT2C in HEK293 cells incubated for 60 mins by FLIPR assay; format: cell-based
[13] = target: T5, 5-hydroxytryptamine receptor 2C (Homo sapiens) (UniProt P28335); assay: Antagonist activity at 5-HT2C in HEK293 cells at 10 uM incubated for 60 mins by FLIPR assay relative to control; format: cell-based; parameters: scale not given: the % may be the effect or the level left; conditions: filed as antagonist
T5 sequence (whole entry): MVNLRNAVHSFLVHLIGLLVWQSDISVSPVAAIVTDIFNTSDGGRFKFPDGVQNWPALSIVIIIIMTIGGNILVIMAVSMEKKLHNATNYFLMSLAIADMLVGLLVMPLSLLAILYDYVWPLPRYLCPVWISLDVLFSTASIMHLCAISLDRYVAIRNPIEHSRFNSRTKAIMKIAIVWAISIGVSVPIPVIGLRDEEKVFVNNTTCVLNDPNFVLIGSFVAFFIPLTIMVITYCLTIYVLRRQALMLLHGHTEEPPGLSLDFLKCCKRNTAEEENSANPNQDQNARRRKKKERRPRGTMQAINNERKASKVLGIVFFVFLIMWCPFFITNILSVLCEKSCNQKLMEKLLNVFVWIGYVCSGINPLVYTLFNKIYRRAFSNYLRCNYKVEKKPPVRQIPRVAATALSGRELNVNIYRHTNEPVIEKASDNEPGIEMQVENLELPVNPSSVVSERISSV

[14] = system: Mus musculus; assay: Antidepressant activity in Kunming mouse chronic unpredictable mild stress model assessed as increase in sucrose preference at 20 mg/kg, IG measured after 1 to 3 weeks; format: functional, organism-based; conditions: time 1-3 weeks
[15] = Acute toxicity in po dosed Sprague-Dawley rat assessed as mortality rate measured after 24 hrs; format: organism-based; conditions: in vivo
[16] = system: Mus musculus; assay: Antidepressant activity in IG dosed Kunming mouse assessed as decrease in immobility time by measuring minimal effective dose by forced swimming test; format: functional
[17] = In vivo inhibition of 5-HT2A in po dosed DOI-induced Kunming mouse assessed as reduction in head twitch response pretreated for 60 mins followed by DOI induction and measured for 20 mins; format: functional; conditions: 1.333 h, time 80 min
[18] = system: Mus musculus; assay: Antidepressant activity in IG dosed Kunming mouse assessed as decrease in immobility time by measuring minimal effective dose by tail suspension test; format: functional
[19] = system: Rattus norvegicus; assay: Antidepressant activity against ACTH-induced treatment resistant depression in Sprague-Dawley rat model assessed as reduction in immobility time at 30 mg/kg, ip by forced swimming test; format: functional, organism-based

Sodium-dependent serotonin transporter, sequence (P31652 whole entry): as the sequence (P31652 whole entry) above

Row | SMILES | Ki [1] [nM] | Ki [2] [nM] | further results
1 | CNCCC(Oc1cccc2c1OCO2)c1cccc(Cl)c1 (centres undefined) | 112 | 4.8 | –
2 | CN(C)CCC(Oc1cccc2c1OCO2)c1ccc(F)c(F)c1 (centres undefined) | 237 | 139 | –
3 | CNCCC(Oc1cccc2c1OCO2)c1ccccc1Cl (centres undefined) | 57.4 | 26.6 | –
4 | CNCCC(Oc1cccc2c1OCO2)c1ccccc1OC (centres undefined) | 64.2 | 30.2 | –
5 | NCCc1c[nH]c2ccc(O)cc12 | – | – | Activity [3]: 5.6%
6 | CN(C)CCC(Oc1cccc2c1OCO2)c1cccc(Cl)c1 (centres undefined) | 103 | 70.4 | –
7 | CN(C)CCCC1(c2ccc(F)cc2)OCc2cc(C#N)ccc21 (centres undefined) | – | – | Activity [4]: 100%
8 | CNCCC(Oc1cccc2c1OCO2)c1ccc(Cl)cc1 (centres undefined) | 77.3 | 14.8 | –
9 | CNCCC(Oc1cccc2c1OCO2)c1ccccc1F (centres undefined) | 84.9 | 20.5 | –
10 | CNCCC(Oc1cccc2c1OCO2)c1ccccc1 (centres undefined) | 19.8 | 4.2 | Ki [5]: 992 nM; IC50 [6]: 818 nM; Ki at 60 min [7]: 669 nM; Ki [8]: 156 nM; Ki [9]: 134 nM
11 | CN(C)CCC(Oc1cccc2c1OCO2)c1ccc(Cl)cc1 (centres undefined) | 19.9 | 10.4 | –
12 | CN(C)CCC(Oc1cccc2c1OCO2)c1ccc(C(F)(F)F)cc1 (centres undefined) | 182 | 124 | –
13 | CNCCC(Oc1cccc2c1OCO2)c1ccc(F)cc1 (centres undefined) | 68.6 | 5.4 | –
14 | CNCCC(Oc1cccc2c1OCO2)c1ccc(F)c(F)c1 (centres undefined) | 96.3 | 6.6 | –
15 | CN(C)CCC(Oc1cccc2c1OCO2)c1ccc2c(c1)OCO2 (centres undefined) | 9.5 | 4.9 | Ki [5]: 134 nM; IC50 [6]: 371 nM; Ki at 60 min [7]: 426 nM; Ki [8]: 55.1 nM; Ki [9]: 105 nM
16 | CCc1nn(CCCN2CCN(c3cccc(Cl)c3)CC2)c(=O)n1CCOc1ccccc1 [NEFAZODONE] | – | – | Ki [10]: 555 nM
17 | CNCCC(Oc1cccc2c1OCO2)c1ccc(C(F)(F)F)cc1 (centres undefined) | 74.1 | 31.1 | –
18 | CN(C)CCC(Oc1cccc2c1OCO2)c1ccc(F)cc1 (centres undefined) | 4.2 | 2.8 | Ki [5]: 1240 nM; IC50 [6]: 1110 nM; Ki at 60 min [7]: 937 nM; Ki [8]: 35.3 nM; Ki [9]: 29.6 nM
19 | COc1ccc(C(CCN(C)C)Oc2cccc3c2OCO3)cc1 (centres undefined) | 189 | 218 | –
20 | CNCCC(Oc1cccc2c1OCO2)c1ccc(C)cc1 (centres undefined) | 17.4 | 48.8 | –
21 | CNCCC(Oc1cccc2c1OCO2)c1cccc(C)c1 (centres undefined) | 50.6 | 20.4 | –
22 | O=C(c1ccc(F)cc1)C1CCN(CCn2c(=O)[nH]c3ccccc3c2=O)CC1 | – | – | Activity [11]: 98.3%
23 | Cc1cccc(C(CCN(C)C)Oc2cccc3c2OCO3)c1 (centres undefined) | 159 | 214 | –

Row | SMILES | Ki [1] [nM] | Ki [2] [nM] | further results
24 | CNCCC(Oc1cccc2c1OCO2)c1cccc(OC)c1 (centres undefined) | 48.2 | 11.1 | –
25 | NCCC(Oc1cccc2c1OCO2)c1ccccc1 (centres undefined) | 217 | 51 | –
26 | Cc1cc2c(cc1Cl)N(C(=O)Nc1ccc(Oc3cccnc3C)nc1)CC2 [SB-242084] | – | – | IC50 [12]: 19.7 nM; Activity [13]: 98.6%
27 | CNCCC(Oc1cccc2c1OCO2)c1ccc2c(c1)OCO2 (centres undefined) | 32.8 | 28.4 | –
28 | Cc1ccccc1C(CCN(C)C)Oc1cccc2c1OCO2 (centres undefined) | 157 | 247 | –
29 | CN(C)CC[C@H](Oc1cccc2c1OCO2)c1ccc(F)cc1 | 3.3 | 12.7 | Ki [5]: 988 nM; IC50 [6]: 907 nM; Ki at 60 min [7]: 823 nM; Ki [8]: 57.7 nM; Ki [9]: 71.2 nM
30 | Cc1ccc(C(CCN(C)C)Oc2cccc3c2OCO3)cc1 (centres undefined) | 69.7 | 195 | –
31 | COc1cccc(C(CCN(C)C)Oc2cccc3c2OCO3)c1 (centres undefined) | 203 | 268 | –
32 | CNCCC(Oc1ccc(C(F)(F)F)cc1)c1ccccc1 (centres undefined) | – | – | Activity [14]: inactive
33 | COc1ccc(C(CCN(C)C)Oc2cccc3c2OCO3)cc1OC (centres undefined) | 245 | 222 | –
34 | CN(C)CCC(Oc1cccc2c1OCO2)c1ccccc1 (centres undefined) | 98.4 | 29.4 | –
35 | CNCC[C@H](Oc1cccc2ccccc12)c1cccs1 [DULOXETINE] | – | – | Ki [5]: 1010 nM; Ki at 60 min [7]: 1270 nM; Ki [8]: 1240 nM; LD50 at 24 h [15]: 279 mg/kg; Activity [16]: Dose-dependent-effect; minimal effective dose ([16]; po, read-out: MED): 16 mg/kg; ED50 [17]: 30.9 mg/kg; Ki [9]: 2470 nM; Activity [18]: Dose-dependent-effect; minimal effective dose ([18]; po, read-out: MED): 16 mg/kg
36 | CNCCC(Oc1cccc2c1OCO2)c1ccc(Cl)c(Cl)c1 (centres undefined) | 43.6 | 15 | –
37 | COc1ccccc1C(CCN(C)C)Oc1cccc2c1OCO2 (centres undefined) | 221 | 253 | –
38 | CN(C)CCC(Oc1cccc2c1OCO2)c1ccccc1F (centres undefined) | 28 | 17.2 | –
39 | CN(C)CCC(Oc1cccc2c1OCO2)c1ccccc1Cl (centres undefined) | 29.7 | 19.5 | –
40 | CN(C)CCC(Oc1cccc2c1OCO2)c1cccc(F)c1 (centres undefined) | 15.1 | 3 | Ki [5]: 1130 nM; IC50 [6]: 940 nM; Ki at 60 min [7]: 549 nM; Ki [8]: 89.3 nM; Ki [9]: 63.4 nM
41 | CNCCC(Oc1cccc2c1OCO2)c1ccc(OC)cc1 (centres undefined) | 109 | 25.5 | –
42 | CN(C)CCC(Oc1cccc2c1OCO2)c1ccc(Cl)c(Cl)c1 (centres undefined) | 189 | 253 | –
43 | CNCCC(Oc1cccc2c1OCO2)c1ccc(OC)c(OC)c1 (centres undefined) | 217 | 19.9 | –
44 | CNCCC(Oc1cccc2c1OCO2)c1ccccc1C (centres undefined) | 41.2 | 13.9 | –
45 | Fc1ccc([C@@H]2CCNC[C@H]2COc2ccc3c(c2)OCO3)cc1 | – | – | Activity [19]: inactive
46 | CNCCC(Oc1cccc2c1OCO2)c1cccc(F)c1 (centres undefined) | 59.3 | 7.5 | –
